Reference: paper PMC7318359, “Stapled Peptides as HIF‐1α/p300 Inhibitors: Helicity Enhancement in the Bound State Increases Inhibitory Potency” (Chemistry (Weinheim an Der Bergstrasse, Germany), 2020)
Bridge positions count the residues as written; N and C are the ends. Ends that are not written are not given here. Peptide text beside a SMILES is read from it.

B1: HIF‐1α_(812–826) sE816C‐R820C (peptide, UniProt Q16665 812-826, looked up)
peptide: Ac-LLQGCELLCALDQVN
modifications: bridge 5-9; not fully specified (bridges)
notes: Made on Rink Amide MBHA resin, so probably a C-terminal amide; also called stapled peptide; dibromomaleimide stapled (s) E816C-R820C; source: synthetic peptide

Key:
[1] = target: HIF‐1α/p300 interaction (Homo sapiens, UniProt Q09472); experiment: Fluorescence anisotropy competition assay (displacement of FITC‐Ahx‐HIF‐1α786–826 tracer from p300); assay type: binding; details: p300 (100 nM); for IC50: FA competition, FITC‐Ahx‐HIF‐1α786–826 tracer, 20 mM Tris, 100 mM NaCl 0.1 mM DTT, pH 7.46, read after 45 minutes at room temperature, triplicate
Procedure: Fluorescence anisotropy assays were performed in 384‐well plates (Greiner Bio‐one). Each experiment was run in triplicate and the fluorescence anisotropy measured using a Perkin–Elmer EnVisionTM 2103 MultiLabel plate reader, with excitation at 480 nm (30 nm bandwidth), polarised dichroic mirror at 505 nm and emission at 535 nm (40 nm bandwidth, S and P polarised). All assays were performed in 20 mM Tris, 100 mM NaCl 0.1 mM DTT, pH 7.46 unless otherwise stated and data analysed following previously published methods.
Where I is the total intensity, G is an instrument factor which was set to 1 for all experiments and r is the anisotropy. The average anisotropy (across three experimental replicates) and the standard deviation of these values were then calculated and fit to a sigmoidal logistic model [Eq. (3)] using OriginPro 9.0 which provided the IC50 and error values: y = r max + (r min−r max)/(1+(x/xo) p).
FA competition assays were performed in 384 well plates with the concentration of peptide competitor typically starting from 850 μM, diluted over 16 points in 1/2 regime with fixed protein and tracer concentrations. […] For control wells, the tracer peptide was replaced with an identical volume of assay buffer. The total volume in each well was 60 μL. Plates were read after 45 minutes of incubation at room temperature.

[2] = target: p300 (UniProt Q09472 1-2414); experiment: fluorescence polarisation; fluorescence anisotropy competition; peptide competitor diluted from about 850 μM over 16 points against fixed p300 (100 nM) and FITC tracer (25 nM in the legend, 50 nM in the methods); 20 mM Tris, 100 mM NaCl, 0.1 mM DTT, pH 7.46; 45 minutes at room temperature; details: both partners purified
Chain of p300 (Q09472 whole entry): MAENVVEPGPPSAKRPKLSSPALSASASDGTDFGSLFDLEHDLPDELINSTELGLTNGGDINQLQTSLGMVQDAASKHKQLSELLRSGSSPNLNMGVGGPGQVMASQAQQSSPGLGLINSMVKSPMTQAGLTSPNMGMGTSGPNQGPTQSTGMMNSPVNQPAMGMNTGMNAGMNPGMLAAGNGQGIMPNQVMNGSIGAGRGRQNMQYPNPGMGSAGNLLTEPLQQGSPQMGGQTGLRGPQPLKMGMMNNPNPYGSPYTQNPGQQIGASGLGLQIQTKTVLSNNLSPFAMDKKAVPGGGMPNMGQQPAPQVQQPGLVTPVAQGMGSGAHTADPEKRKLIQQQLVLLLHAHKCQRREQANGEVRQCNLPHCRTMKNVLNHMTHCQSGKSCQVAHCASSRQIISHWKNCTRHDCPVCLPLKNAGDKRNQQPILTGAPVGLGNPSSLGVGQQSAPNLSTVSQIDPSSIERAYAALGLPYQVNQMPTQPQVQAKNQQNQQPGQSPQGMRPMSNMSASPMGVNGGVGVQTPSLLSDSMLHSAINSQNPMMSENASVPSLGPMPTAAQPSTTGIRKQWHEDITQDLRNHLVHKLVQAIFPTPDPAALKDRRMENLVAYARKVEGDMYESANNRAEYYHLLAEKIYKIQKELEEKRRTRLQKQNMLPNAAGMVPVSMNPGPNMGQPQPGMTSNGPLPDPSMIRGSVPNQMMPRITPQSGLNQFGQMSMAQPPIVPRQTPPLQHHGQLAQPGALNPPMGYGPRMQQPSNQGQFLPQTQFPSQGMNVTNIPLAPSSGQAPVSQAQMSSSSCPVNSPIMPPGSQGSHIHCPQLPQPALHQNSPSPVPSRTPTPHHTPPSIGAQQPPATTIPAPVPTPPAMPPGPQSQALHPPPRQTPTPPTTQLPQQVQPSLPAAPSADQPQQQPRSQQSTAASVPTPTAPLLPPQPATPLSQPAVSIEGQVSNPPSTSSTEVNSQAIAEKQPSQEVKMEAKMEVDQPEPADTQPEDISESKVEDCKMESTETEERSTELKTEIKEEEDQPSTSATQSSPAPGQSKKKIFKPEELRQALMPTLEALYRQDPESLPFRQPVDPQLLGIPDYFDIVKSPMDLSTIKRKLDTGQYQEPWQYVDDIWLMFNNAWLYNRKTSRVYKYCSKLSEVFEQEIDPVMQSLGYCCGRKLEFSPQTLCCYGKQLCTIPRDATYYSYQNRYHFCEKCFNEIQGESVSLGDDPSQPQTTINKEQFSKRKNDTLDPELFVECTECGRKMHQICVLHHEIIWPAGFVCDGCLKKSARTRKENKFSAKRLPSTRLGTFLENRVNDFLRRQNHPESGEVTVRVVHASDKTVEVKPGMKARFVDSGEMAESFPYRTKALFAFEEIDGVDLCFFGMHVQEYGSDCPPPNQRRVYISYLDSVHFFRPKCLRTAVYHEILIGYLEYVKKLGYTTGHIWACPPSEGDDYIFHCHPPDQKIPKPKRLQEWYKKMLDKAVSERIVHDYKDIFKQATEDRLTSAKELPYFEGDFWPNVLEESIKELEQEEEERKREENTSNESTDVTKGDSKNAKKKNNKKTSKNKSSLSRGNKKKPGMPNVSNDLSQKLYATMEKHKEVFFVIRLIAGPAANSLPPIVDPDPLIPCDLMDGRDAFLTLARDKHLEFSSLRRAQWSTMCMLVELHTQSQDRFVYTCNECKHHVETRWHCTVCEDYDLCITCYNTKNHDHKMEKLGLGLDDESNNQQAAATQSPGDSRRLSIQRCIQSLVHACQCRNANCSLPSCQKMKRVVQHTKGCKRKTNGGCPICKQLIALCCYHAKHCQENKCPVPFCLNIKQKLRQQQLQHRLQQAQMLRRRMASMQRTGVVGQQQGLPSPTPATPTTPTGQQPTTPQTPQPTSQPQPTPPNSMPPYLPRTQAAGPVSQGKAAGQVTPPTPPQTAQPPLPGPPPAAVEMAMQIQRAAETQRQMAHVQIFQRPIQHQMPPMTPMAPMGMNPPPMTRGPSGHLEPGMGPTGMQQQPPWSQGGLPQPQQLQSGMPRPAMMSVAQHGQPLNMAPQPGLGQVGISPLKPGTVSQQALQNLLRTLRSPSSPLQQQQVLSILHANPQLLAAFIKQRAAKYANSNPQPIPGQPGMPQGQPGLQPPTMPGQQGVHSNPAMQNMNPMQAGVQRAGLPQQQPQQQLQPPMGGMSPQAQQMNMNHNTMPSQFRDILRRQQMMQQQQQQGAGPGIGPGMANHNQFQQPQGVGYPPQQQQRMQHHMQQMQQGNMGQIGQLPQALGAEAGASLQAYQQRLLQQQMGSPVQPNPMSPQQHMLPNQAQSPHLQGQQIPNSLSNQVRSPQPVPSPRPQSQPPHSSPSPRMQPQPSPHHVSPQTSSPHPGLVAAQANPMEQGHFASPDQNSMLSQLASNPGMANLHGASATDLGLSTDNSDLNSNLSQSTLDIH

Molecule	IC50 [1]	also measured
CC(=O)N[C@@H](CC(C)C)C(=O)N[C@@H](CCC(N)=O)C(=O)NCC(=O)N[C@H]1CSSC[C@@H](C(=O)N[C@@H](C)C(=O)N[C@@H](CC(C)C)C(=O)N[C@@H](CC(=O)O)C(=O)N[C@@H](CCC(N)=O)C(=O)N[C@H](C(=O)N[C@@H](CC(N)=O)C(N)=O)C(C)C)NC(=O)[C@H](CC(C)C)NC(=O)[C@H](CC(C)C)NC(=O)[C@H](CCC(=O)O)NC1=O [HIF‐1α812–826 oxE816C‐R820C] (Ac-LQGCELLCALDQVN-NH2; disulfide 4-8)	> 600 µM	–
CC(=O)N[C@@H](CC(C)C)C(=O)N[C@@H](CCC(N)=O)C(=O)NCC(=O)N[C@@H](CS)C(=O)N[C@@H](CCC(=O)O)C(=O)N[C@@H](CC(C)C)C(=O)N[C@@H](CC(C)C)C(=O)N[C@@H](CS)C(=O)N[C@@H](C)C(=O)N[C@@H](CC(C)C)C(=O)N[C@@H](CC(=O)O)C(=O)N[C@@H](CCC(N)=O)C(=O)N[C@H](C(=O)N[C@@H](CC(N)=O)C(N)=O)C(C)C [HIF‐1α812–826 redE816C‐R820C] (Ac-LQGCELLCALDQVN-NH2)	9.9 µM	–
Ac-LQGEELLRALDQVN-NH2 [wt‐HIF‐1α812–826, wild‐type HIF‐1α helix 3 peptide, N‐acetyl, C‐terminal amide]	–	Inhibition / tracer displacement in FA competition assay ([1]; FITC‐Ahx‐HIF‐1α786–826 tracer (25 nM), pH 7.46): weak inhibition and could not fully displace tracer
B1	–	IC50 [2]: 30.3 ± 5 µM
